Source: US11046699B2, “Pyrazolo-pyrimidin-amino-cycloalkyl compounds and their therapeutic uses” (RAPT THERAPEUTICS, INC., priority 2018, dated 2021)
Like-named read-outs stand apart in the source and are kept apart here.

Target: GCN2 (Homo sapiens, UniProt Q9P2K8)
Assay: GCN2 enzymatic endpoint assay: phosphorylation of GFP-eIF2α measured by TR-FRET (Lanthascreen)
Type: biochemical
Summary of the method: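 Endpoint GCN2 reaction with low ATP (2 μM) and 80 nM GFP-eIF2α, room temperature, 90 minutes. Detection mix with EDTA and Tb-labelled antibody; 520 nm/495 nm emission ratio reported.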

[1] = tested as described in Example 77, compound and/or hydrochloride, dihydrochloride or trifluoroacetic acid salt, read-out: IC 50 Activity

Sequence of GCN2 (Q9P2K8 whole entry): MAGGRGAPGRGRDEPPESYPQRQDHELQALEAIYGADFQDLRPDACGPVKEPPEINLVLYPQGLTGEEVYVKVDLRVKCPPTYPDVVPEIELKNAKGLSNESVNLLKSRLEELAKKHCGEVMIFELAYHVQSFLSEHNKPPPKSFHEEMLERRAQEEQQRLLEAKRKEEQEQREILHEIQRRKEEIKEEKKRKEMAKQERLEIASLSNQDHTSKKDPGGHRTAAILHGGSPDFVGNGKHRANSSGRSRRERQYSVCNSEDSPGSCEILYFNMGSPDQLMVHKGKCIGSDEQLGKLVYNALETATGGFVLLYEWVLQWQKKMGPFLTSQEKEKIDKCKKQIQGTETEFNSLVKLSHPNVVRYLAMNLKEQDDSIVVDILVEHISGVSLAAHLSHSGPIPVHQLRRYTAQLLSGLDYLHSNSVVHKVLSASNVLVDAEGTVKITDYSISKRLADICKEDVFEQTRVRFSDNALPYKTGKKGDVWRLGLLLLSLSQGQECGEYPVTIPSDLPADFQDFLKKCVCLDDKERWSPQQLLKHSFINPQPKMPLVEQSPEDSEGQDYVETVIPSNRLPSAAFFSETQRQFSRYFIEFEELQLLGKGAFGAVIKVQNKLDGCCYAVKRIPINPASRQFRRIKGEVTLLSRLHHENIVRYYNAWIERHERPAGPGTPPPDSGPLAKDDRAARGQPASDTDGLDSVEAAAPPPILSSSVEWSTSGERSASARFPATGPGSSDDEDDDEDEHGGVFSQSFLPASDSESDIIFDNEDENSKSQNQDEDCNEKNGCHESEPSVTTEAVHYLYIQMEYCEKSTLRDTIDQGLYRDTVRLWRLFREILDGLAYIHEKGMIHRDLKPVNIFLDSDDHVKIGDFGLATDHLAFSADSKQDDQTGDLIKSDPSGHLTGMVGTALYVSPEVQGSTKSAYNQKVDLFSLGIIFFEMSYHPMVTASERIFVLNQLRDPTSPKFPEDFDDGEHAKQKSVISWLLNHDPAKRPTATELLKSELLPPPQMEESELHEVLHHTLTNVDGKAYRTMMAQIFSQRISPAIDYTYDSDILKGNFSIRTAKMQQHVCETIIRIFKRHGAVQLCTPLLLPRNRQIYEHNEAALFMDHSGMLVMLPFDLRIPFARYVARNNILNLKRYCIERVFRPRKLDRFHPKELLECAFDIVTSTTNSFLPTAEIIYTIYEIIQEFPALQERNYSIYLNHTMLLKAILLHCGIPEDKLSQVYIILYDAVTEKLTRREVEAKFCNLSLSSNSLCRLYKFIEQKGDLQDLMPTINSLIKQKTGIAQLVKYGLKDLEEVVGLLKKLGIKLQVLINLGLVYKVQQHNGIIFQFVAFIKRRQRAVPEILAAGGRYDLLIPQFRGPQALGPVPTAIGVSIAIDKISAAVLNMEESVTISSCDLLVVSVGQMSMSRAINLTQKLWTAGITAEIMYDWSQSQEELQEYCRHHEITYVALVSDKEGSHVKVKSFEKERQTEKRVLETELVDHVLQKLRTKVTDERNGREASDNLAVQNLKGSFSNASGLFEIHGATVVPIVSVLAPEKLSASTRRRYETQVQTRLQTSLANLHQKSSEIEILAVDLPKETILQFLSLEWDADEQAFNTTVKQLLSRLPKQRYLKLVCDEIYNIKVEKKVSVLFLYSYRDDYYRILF

Row | SMILES | IC50 [1] [nM] | IC50 (GCN2 biochemical IC50, 4 nM GCN2, 2 μM ATP, 80 nM GFP-eIF2α, 90 min RT, read-out: GCN2 activity) [nM]
1 | CNC(=O)[C@]1(C)CC[C@@H](Nc2ncc3c(Br)nn(-c4cc(C#N)cc(OCC(C)O)c4)c3n2)C1 (stereo partly drawn) [(1R,3R)-3-[[3-bromo-1-[3-cyano-5-(2-hydroxypropoxy)phenyl]pyrazolo [3,4-d]pyrimidin-6-yl]amino]-N,1-dimethyl-cyclopentanecarboxamide] | 25 to 200 | 
2 | COCCNC(=O)[C@@H]1CC[C@@H](Nc2ncc3c(Br)nn(-c4ccc5nccn5c4)c3n2)C1 [(1R,3R)-3-((3-bromo-1-(imidazo[1,2-a]pyridin-6-yl)-1H-pyrazolo[3,4-d]pyrimidin-6-yl)amino)-N-(2-methoxyethyl)cyclopentane-1-carboxamide] | 500 to 1000 | 
3 | CNC(=O)[C@]1(CC(=O)N(C)C)CC[C@@H](Nc2ncc3c(Br)nn(-c4cc(F)c5ncccc5c4)c3n2)C1 [(1R,3R)-3-[[3-bromo-1-(8-fluoro-6-quinolyl)pyrazolo[3,4-d]pyrimidin-6-yl]amino]-1-[2-(dimethylamino)-2-oxo-ethyl]-N-methyl-cyclopentanecarboxamide] | < 25 | 
4 | CNC(=O)[C@]1(COC)CC[C@@H](Nc2ncc3c(Br)nn(-c4cc(F)c5ncccc5c4)c3n2)C1 [(1R,3R)-3-[[3-bromo-1-(8-fluoro-6-quinolyl)pyrazolo[3,4-d]pyrimidin-6-yl]amino]-1-(methoxymethyl)-N-methyl-cyclopentane-carboxamide] | < 25 | 
5 | CN1CCN(C(=O)[C@@H]2CC[C@@H](Nc3ncc4c(Br)nn(-c5ccc6ncccc6c5)c4n3)C2)CC1=O [4-((1R,3R)-3-((3-bromo-1-(quinolin-6-yl)-1H-pyrazolo[3,4-d]pyrimidin-6-yl)amino)cyclo-pentane-1-carbonyl)-1-methylpiperazin-2-one] | 25 to 200 | 
6 | CNC(=O)[C@]1(C)CCC(Nc2ncc3c(Br)nn(-c4cnc(-c5nnc(C)s5)c(F)c4)c3n2)C1 (stereo partly drawn) [(1R)-3-[[3-bromo-1-[5-fluoro-6-(5-methyl-1,3,4-thiadiazol-2-yl)-3-pyridyl]pyrazolo [3,4-d]pyrimidin-6-yl]amino]-N,1-dimethyl-cyclopentanecarboxamide] | 25 to 200 | 
7 | Cc1nnc(-c2ccc(-n3nc(Br)c4cnc(N[C@@H]5CC[C@@](C)(C(=O)NCC(F)F)C5)nc43)cc2CCC#N)s1 [(1R,3R)-3-[[3-bromo-1-[3-(2-cyanoethyl)-4-(5-methyl-1,3,4-thiadiazol-2-yl)phenyl]pyrazolo[3,4-d]pyrimidin-6-yl]amino]-N-(2,2-difluoroethyl)-1-methyl-cyclopentanecarboxamide] | 25 to 200 | 
8 | Cc1nnc(-c2ccc(-n3nc(Br)c4cnc(N[C@@H]5CC[C@]6(CCNC6=O)C5)nc43)cc2CCC#N)s1 | 25 to 200 | 
9 | CNC(=O)[C@]1(C)CC[C@@H](Nc2ncc3c(Br)nn(-c4cc(CCN)c5ncc(C#N)cc5c4)c3n2)C1 [(1R,3R)-3-[[1-[8-(2-aminoethyl)-3-cyano-6-quinolyl]-3-bromo-pyrazolo[3,4-d]pyrimidin-6-yl]amino]-N,1-dimethyl-cyclopentane-carboxamide] | 25 to 200 | 
10 | CNC(=O)[C@]1(C)CC[C@@H](Nc2ncc3c(Br)nn(-c4ccc(-c5ncco5)c([C@H](C)C#N)c4)c3n2)C1 [(1R,3R)-3-[[3-bromo-1-[3-[(1S)-1-cyanoethyl]-4-oxazol-2-yl-phenyl]pyrazolo[3,4-d]pyrimidin-6-yl]amino]-N,1-dimethyl-cyclopentane-carboxamide] | 25 to 200 | 
11 | CNC(=O)[C@]1(C)CC[C@@H](Nc2ncc3c(Br)nn(-c4ccc(-c5cnc(C)o5)cc4)c3n2)C1 [(1R,3R)-3-[[3-bromo-1-[4-(2-methyloxazol-5-yl)phenyl]pyrazolo[3,4-d]pyrimidin-6-yl]amino]-N,1-dimethyl-cyclopentane-carboxamide] | 25 to 200 | 
12 | CNC(=O)[C@]1(C)CC[C@@H](Nc2ncc3c(Br)nn(-c4ccc5c(c4)CCC(=O)N5CC#N)c3n2)C1 [(1R,3R)-3-[[3-bromo-1-[1-(cyano-methyl)-2-oxo-3,4-dihydroquinolin-6-yl]pyrazolo[3,4-d]pyrimidin-6-yl]amino]-N,1-dimethyl-cyclopentane-carboxamide] | 25 to 200 | 
13 | O=C(NC1CCCN(CCF)C1)[C@@H]1CC[C@@H](Nc2ncc3c(Br)nn(-c4cc(F)c5ncccc5c4)c3n2)C1 (mixture of isomers) | 25 to 200 | 
14 | C[C@H](N)c1cc(Cl)cc(-n2nc(Br)c3cnc(N[C@@H]4CC[C@@](C)(C(=O)N5CCP(C)(=O)CC5)C4)nc32)c1 | 25 to 200 | 
15 | COCCNC(=O)[C@@H]1CC[C@@H](Nc2ncc3c(Cl)nn(-c4ccc5ncccc5c4)c3n2)C1 [Example 14, (1R,3R)-3-((3-chloro-1-(quinolin-6-yl)-1H-pyrazolo[3,4-d]pyrimidin-6-yl)amino)-N-(2-methoxyethyl)cyclopentane-1-carboxamide] |  | < 25
16 | CC1(C(=O)N2CC3CCC(C2)O3)CC[C@@H](Nc2ncc3c(Br)nn(-c4cc(F)c5ncccc5c4)c3n2)C1 (stereo partly drawn) [[(3R)-3-[[3-bromo-1-(8-fluoro-6-quinolyl)pyrazolo[3,4-d]pyrimidin-6-yl]amino]-1-methyl-cyclopentyl]-(8-oxa-3-azabicyclo [3.2.1]octan-3-yl)methanone] | < 25 | 

Row | SMILES | IC50 [1] [nM] | IC50 (GCN2 biochemical IC50, 4 nM GCN2, 2 μM ATP, 80 nM GFP-eIF2α, 90 min RT, read-out: GCN2 activity) [nM]
17 | CNC(=O)[C@]1(C)CC[C@@H](Nc2ncc3c(Br)nn(-c4cc(F)c5c(c4)CCO5)c3n2)C1 [(1R,3R)-3-[[3-bromo-1-(7-fluoro-2,3-dihydro-benzofuran-5-yl)pyrazolo[3,4-d]pyrimidin-6-yl]amino]-N,1-dimethyl-cyclopentane-carboxamide] | 25 to 200 | 
18 | CNC(=O)[C@]1(C)CC[C@@H](Nc2ncc3c(Br)nn(-c4ccc5c(c4)OCC(=O)N5CCO)c3n2)C1 [(1R,3R)-3-[[3-bromo-1-[4-(2-hydroxy-ethyl)-3-oxo-1,4-benzoxazin-7-yl]pyrazolo[3,4-d]pyrimidin-6-yl]amino]-N,1-dimethyl-cyclopentanecarboxamide] | 25 to 200 | 
19 | O=C(CO)N1CCN(C(=O)[C@@H]2CC[C@@H](Nc3ncc4c(Br)nn(-c5cc(F)c6ncccc6c5)c4n3)C2)CC1 [1-(4-((1R,3R)-3-((3-bromo-1-(8-fluoroquinolin-6-yl)-1H-pyrazolo[3,4-d]pyrimidin-6-yl)amino)cyclopentane-1-carbonyl)piperazin-1-yl)-2-hydroxyethan-1-one] | 25 to 200 | 
20 | C[C@H]1CN(C)C(=O)CN1C(=O)[C@@H]1CC[C@@H](Nc2ncc3c(Br)nn(-c4cc(F)c5ncccc5c4)c3n2)C1 [(S)-4-((1R,3R)-3-((3-bromo-1-(8-fluoroquinolin-6-yl)-1H-pyrazolo[3,4-d]pyrimidin-6-yl)amino)cyclopentane-1-carbonyl)-1,5-dimethyl-piperazin-2-one] | 25 to 200 | 
21 | CNC(=O)[C@]1(C)CC[C@@H](Nc2ncc3c(Br)nn(-c4ccc5c(c4)OCC(=O)N5C(C)C)c3n2)C1 [(1R,3R)-3-[[3-bromo-1-(4-isopropyl-3-oxo-1,4-benzoxazin-7-yl)pyrazolo[3,4-d]pyrimidin-6-yl]amino]-N,1-dimethyl-cyclopentanecarboxamide] | 25 to 200 | 
22 | Cc1nnc(-c2ccc(-n3nc(Br)c4cnc(N[C@@H]5CC[C@@](C)(C(=O)N6CCNCC6)C5)nc43)cc2)s1 [[(1R,3R)-3-[[3-bromo-1-[4-(5-methyl-1,3,4-thiadiazol-2-yl)phenyl]pyrazolo [3,4-d]pyrimidin-6-yl]amino]-1-methyl-cyclopentyl]-piperazin-1-yl-methanone] | 25 to 200 | 
23 | CNC(=O)[C@]1(C)CC[C@@H](Nc2ncc3c(Br)nn(-c4ccc(-c5cncs5)cc4)c3n2)C1 [(1R,3R)-3-[[3-bromo-1-(4-thiazol-5-ylphenyl)pyrazolo[3,4-d]pyrimidin-6-yl]amino]-N,1-dimethyl-cyclopentane-carboxamide] | 25 to 200 | 
24 | CNC(=O)[C@@H]1CC[C@@H](Nc2ncc3c(Br)nn(-c4ccc5ncc(Cl)cc5c4)c3n2)C1 [(1R,3R)-3-[[3-bromo-1-(3-chloro-6-quinolyl)pyrazolo[3,4-d]pyrimidin-6-yl]amino]-N-methyl-cyclopentanecarboxamide] | 25 to 200 | 
25 | CNC(=O)[C@]1(C)CC[C@@H](Nc2ncc3c(Br)nn(-c4ccc(-c5nnc(C)s5)c(CCN5CCOCC5)c4)c3n2)C1 [(1R,3R)-3-[[3-bromo-1-[4-(5-methyl-1,3,4-thiadiazol-2-yl)-3-(2-morpholino-ethyl)phenyl]pyrazolo[3,4-d]pyrimidin-6-yl]amino]-N,1-dimethyl-cyclo-pentanecarboxamide] | 25 to 200 | 
26 | CNC(=O)[C@]1(CC(F)F)CC[C@@H](Nc2ncc3c(Br)nn(-c4ccc5ncncc5c4)c3n2)C1 [(1R,3R)-3-[(3-bromo-1-quinazolin-6-yl-pyrazolo[3,4-d]pyrimidin-6-yl)amino]-1-(2,2-difluoroethyl)-N-methyl-cyclopentanecarboxamide] | 25 to 200 | 
27 | CN(C)S(=O)(=O)C1CC[C@@H](Nc2ncc3c(Br)nn(-c4cc(F)c5ncccc5c4)c3n2)C1 (stereo partly drawn) [(3R)-3-((3-bromo-1-(8-fluoroquinolin-6-yl)-1H-pyrazolo[3,4-d]pyrimidin-6-yl)amino)-N,N-dimethylcyclopentane-1-sulfonamide] | 25 to 200 | 
28 | Fc1cc(-n2nc(Br)c3cnc(NC4CCOC4)nc32)cc2cccnc12 (centres unmarked) [3-bromo-1-(8-fluoro-6-quinolyl)-N-tetrahydrofuran-3-yl-pyrazolo[3,4-d] pyrimidin-6-amine] | 25 to 200 | 
29 | CNC(=O)[C@]1(C)CC[C@@H](Nc2ncc3c(Br)nn(-c4cc(CNCC(F)F)c5ncccc5c4)c3n2)C1 [(1R,3R)-3-[[3-bromo-1-[8-[(2,2-difluoroethylamino)methyl]-6-quinolyl]pyrazolo[3,4-d]pyrimidin-6-yl]amino]-N,1-dimethyl-cyclopentanecarboxamide] | 25 to 200 | 
30 | CNC(=O)[C@]1(C)CC[C@@H](Nc2ncc3c(Br)nn(-c4cc(Cl)c(F)c(CNS(C)(=O)=O)c4)c3n2)C1 | 25 to 200 | 
31 | C[C@H]1CN(C(=O)[C@@H]2CC[C@@H](Nc3ncc4c(Br)nn(-c5ccc6ncccc6c5)c4n3)C2)C[C@H](C)O1 [((1R,3R)-3-((3-bromo-1-(quinolin-6-yl)-1H-pyrazolo[3,4-d]pyrimidin-6-yl)amino)cyclo-pentyl)((2S,6S)-2,6-dimethylmorpholino) methanone] | 25 to 200 | 
32 | Cc1nnc(-c2ccc(-n3nc(Br)c4cnc(N[C@@H]5CCC(CN6CCOCC6)(C(=O)O)C5)nc43)cc2)s1 (some centres unmarked) | 25 to 200 | 
